From patent publication US8802597B2, “Herbicidal pyrimidines” (E I du Pont de Nemours and Company, priority 2003, dated 2014)

Key:
Experiment in all cases: Test J mixtures of compound 58 with azimsulfuron, flooded paddy
Assay type in all cases: in vivo
Settings in all cases: 21 days, scale 0-100
[1] = tested on: ducksalad (HETLI; Heteranthera limosa)
Text: (§1) This test evaluated the effect of mixtures of compound 58 with azimsulfuron on several plant species. Three plastic pots (ca. 16-cm diameter) per rate were partially filled with sterilized Tama silt loam soil comprising a 35:50:15 ratio of sand, silt and clay and 2.6% organic matter. Separate plantings for each of the three pots were as follows. Seeds from the U.S. of ducksalad (HETLI; Heteranthera limosa), smallflower umbrella sedge (CYPDI; Cyperus difformis) and purple redstem (AMMCO; Ammannia coccinea), were planted into one 16-cm pot for each rate. Seeds from the U.S. of bearded sprangletop (LEFUF; Leptochloa fusca ssp. fascicularis), one stand of 9 or 10 water-seeded rice seedlings (ORYSW; Oryza sativa cv. ‘Japonica-M202’), and one stand of 6 transplanted rice seedlings (ORYSP; Oryza sativa cv. ‘Japonica-M202’) were planted into one 16-cm pot for each rate. Seeds from the U.S. of barnyardgrass (ECHCG; Echinochloa crus-galli), late watergrass (ECOR2; Echinochloa oryzicola), early watergrass (ECHOR; Echinochloa oryzoides) and junglerice (ECHCO; Echinochloa colona) were planted into one 16-cm pot for each rate. Plantings were sequential so that crop and weed species were at the 2.0 to 2.5-leaf stage at time of treatment.
(§2) Potted plants were grown in a greenhouse with day/night temperature settings of 29.5/26.7° C., and supplemental balanced lighting was provided to maintain a 16-hour photoperiod. Test pots were maintained in the greenhouse until test completion.
(§3) At time of treatment, test pots were flooded to 3 cm above the soil surface and then treated by application directly to the paddy water of test compounds formulated in a non-phytotoxic solvent mixture which included a surfactant. The pots were maintained at the 3-cm water depth for the duration of the test. Treatments consisted of compound 58 and azimsulfuron alone and in combination. Effects of treatments on rice and weeds were visually evaluated by comparison to untreated controls after 21 days. Plant response ratings were calculated as the means of the three replicates and are summarized in Table J. The ratings are based on a scale of 0 to 100 where 0 is no effect and 100 is complete control. A dash (-) response means no test result. Colby's Equation was used to determine the herbicidal effects expected from the mixtures.

[2] = tested on: purple redstem (AMMCO; Ammannia coccinea)
Text: as §1, §2, §3

[3] = tested on: junglerice (ECHCO; Echinochloa colona)
Text: as §1, §2, §3

[4] = tested on: early watergrass (ECHOR; Echinochloa oryzoides)
Text: as §1, §2, §3

[5] = tested on: smallflower umbrella sedge (CYPDI; Cyperus difformis)
Text: as §1, §2, §3

[6] = tested on: late watergrass (ECOR2; Echinochloa oryzicola)
Text: as §1, §2, §3

[7] = tested on: barnyardgrass (ECHCG; Echinochloa crus-galli)
Text: as §1, §2, §3

[8] = tested on: transplanted rice seedlings (ORYSP; Oryza sativa cv. ‘Japonica-M202’)
Text: as §1, §2, §3

[9] = tested on: water-seeded rice seedlings (ORYSW; Oryza sativa cv. ‘Japonica-M202’)
Text: as §1, §2, §3

[10] = tested on: bearded sprangletop (LEFUF; Leptochloa fusca ssp. fascicularis)
Text: as §1, §2, §3

COc1cc(OC)nc(NC(=O)NS(=O)(=O)c2c(-c3nnn(C)n3)cnn2C)n1 [Azimsulfuron]
HETLI Obsd. ([1]; Azimsulfuron 2 g a.i./ha alone): 30
HETLI Obsd. ([1]; Azimsulfuron 4 g a.i./ha alone): 30
HETLI Obsd. ([1]; Azimsulfuron 8 g a.i./ha alone): 100
AMMCO Obsd. ([2]; Azimsulfuron 2 g a.i./ha alone): 0
AMMCO Obsd. ([2]; Azimsulfuron 4 g a.i./ha alone): 0
AMMCO Obsd. ([2]; Azimsulfuron 8 g a.i./ha alone): 95
ECHCO Obsd. ([3]; Azimsulfuron 2 g a.i./ha alone): 0
ECHCO Obsd. ([3]; Azimsulfuron 4 g a.i./ha alone): 0
ECHCO Obsd. ([3]; Azimsulfuron 8 g a.i./ha alone): 40
ECHOR Obsd. ([4]; Azimsulfuron 2 g a.i./ha alone): 0
ECHOR Obsd. ([4]; Azimsulfuron 4 g a.i./ha alone): 0
ECHOR Obsd. ([4]; Azimsulfuron 8 g a.i./ha alone): 40
CYPDI Obsd. ([5]; Azimsulfuron 2 g a.i./ha alone): 95
CYPDI Obsd. ([5]; Azimsulfuron 4 g a.i./ha alone): 100
CYPDI Obsd. ([5]; Azimsulfuron 8 g a.i./ha alone): 100
ECOR2 Obsd. ([6]; Azimsulfuron 2 g a.i./ha alone): 0
ECOR2 Obsd. ([6]; Azimsulfuron 4 g a.i./ha alone): 0
ECOR2 Obsd. ([6]; Azimsulfuron 8 g a.i./ha alone): 50
ECHCG Obsd. ([7]; Azimsulfuron 2 g a.i./ha alone): 0
ECHCG Obsd. ([7]; Azimsulfuron 4 g a.i./ha alone): 0
ECHCG Obsd. ([7]; Azimsulfuron 8 g a.i./ha alone): 30
ORYSP Obsd. ([8]; Azimsulfuron 2 g a.i./ha alone): 0
ORYSP Obsd. ([8]; Azimsulfuron 4 g a.i./ha alone): 0
ORYSP Obsd. ([8]; Azimsulfuron 8 g a.i./ha alone): 0
ORYSW Obsd. ([9]; Azimsulfuron 2 g a.i./ha alone): 0
ORYSW Obsd. ([9]; Azimsulfuron 4 g a.i./ha alone): 0
ORYSW Obsd. ([9]; Azimsulfuron 8 g a.i./ha alone): 10
LEFUF Obsd. ([10]; Azimsulfuron 2 g a.i./ha alone): 0
LEFUF Obsd. ([10]; Azimsulfuron 4 g a.i./ha alone): 0
LEFUF Obsd. ([10]; Azimsulfuron 8 g a.i./ha alone): 0
